This note sets out measurements from patent US7803407B2 (priority 1997, dated 2010).

Assay in all cases: Laboratory disinfection efficacy test (suspension, pour plate count)
Common to all, as to type: cell-based

Experiment [1] relates to pseudomonas aeruginosa strain ATCC 15442. As to conditions: 15 seconds (ethanol trials) or 1 minute to 30 minutes. Here is the method:
(§1) The inoculum level for each of the test microorganisms were established in a similar manner. Test strains were grown individually at 35° C. for 24 hr. The cells were harvested by centrifugation at 10,000×g for 10 minutes and washed twice with Butterfield's Phosphate Buffer (BPB of pH 7.2). The cells were resuspended in the Butterfield's Phosphate Buffer to obtain a cell suspension of approximately 1.0×10^8 CFU/mL for each microorganism (target inoculum levels were approx. 10^6 in the final test solution).
(§2) The test microorganisms considered were tested at uniform sampling intervals, The sampling intervals selected were (a) 15 seconds (ethanol trials only), (b) 1 minute, (c) 5 minutes, (d) 10 minutes and (e) 30 minutes.
(§3) Five compounds were tested against the test microorganisms.
(§4) The test microorganisms were tested in accordance with the following test procedures. Duplicate trials were conducted for each test variable. Ninety nine volumes of the test solutions in 250 mL Erlenmeyer flasks were prepared from sterilized deionized water. The solutions were inoculated separately with one mL of 24 hour culture from each of the test strains to yield a flask inoculum level of approximately 1.0×10^6 CFU/mL.
(§5) Solutions were mixed well and kept under constant agitation. Samples of 1.0 mL were removed at the above specified time intervals and placed into 9.0 mL Neutralization Broth media (Difco) to yield an initial dilution of 1:10. All samples were serially diluted in the Butterfield's Phosphate Buffer solution (BPB) and plated onto Tryptic Soy Agar (TSA) in duplicate using the pour plate technique. Percent reductions were calculated for each test solution against each test strain.
(§6) For all tests which utilized either copper or silver ions, concentrated solutions were prepared 24 hours prior to the beginning of the study. Solutions were filtered and determinations for ion content were made. From these stock solutions (copper ion concentration as measured by ICAP and silver ion concentration as measured by Atomic Absorption analysis), final working solutions were made. The target ion concentration for both copper and silver was 5.0 mg/L.

Experiment [2] has as its system Staphylococcus aureus strain ATCC 6538. As to conditions: 15 seconds (ethanol trials) or 1 minute to 30 minutes. Here is the method: as §1, §2, §3, §4, §5, §6
Experiment [3] deals with Salmonella cholerasuis strain ATCC 10708. Here is the method: as §1, §2, §3, §4, §5, §6

Turning to `CCO` [20% ethanol, ethanol], the “disinfection effectiveness” value in experiment [1] is “no significant reduction”; in experiment [2], “No significant reduction”; in experiment [3] (all time periods up to 30 minutes) it was “slow, but complete disinfection”. The log10 reduction in experiment [3] (1 minute contact) is given as around 1.0 log10. Also, the “disinfection” value in experiment [3] (after 30 minutes of contact time) is on record as “Near complete disinfection”.
On to `O=C(O)CC(O)(CC(=O)O)C(=O)O` [citric acid], for which the figures for the “disinfection effectiveness” value in experiment [1] and in experiment [2] were “no significant reduction” and “Neither citric acid nor copper:citric acid was effective”, respectively. Further, the log10 reduction in experiment [3] (30 minute time period) stood at 1.0 log10.
